# Results taken from patent publication US20230183640A1, “METABOLIC INHIBITORS WITH EFFICACY FOR INHIBITING SULFIDE PRODUCTION IN HARSH ENVIRONMENTS” (MC (US) 3 LLC, priority 2020, published 2023).
# Assays:
# [1] = test system: Desulfovibrio alaskensis 14563; assay: H2S and Log (Growth) efficacy against SRB, 96-Well Plate Method; format: cell-based
# Experimental: A lyophilized Desulfovibrio alaskensis 14563, Desulfovibrio longus 51456, and Desulfovibrio gabonensis 700201 pure cultures received from ATCC were resuspended individually in 500 ul of MB 1250. Aseptically, the content was transferred to a 5-mL tube of MB1250 medium. The cultures were incubated in an anaerobic chamber at 30° C. for 72 hrs. Subsequently, an individual stock culture with a final concentration of 25% glycerol were prepared by adding equal volumes of culture and 50% glycerol. 1 ml of the cultures were then transferred to 2-ml cryogenic vials and stored at −80° C. The purity of the stock cultures was evaluated through PCR, by amplifying the 16S rDNA region, and thus, it was verified that the original ATCC sample was a pure culture. 48-hour cultures of ATCC Desulfovibrio alaskensis 14563, Desulfovibrio longus 51456, and Desulfovibrio gabonensis 700201 were prepared in an anaerobic chamber. Each culture was prepared as a 1:10 culture by taking 1 milliliter (mL) of a pure culture and inoculating 9 milliliters (mL) of fresh MB1250 media. The Desulfovibrio alaskensis 14563 and Desulfovibrio gabonensis 700201 were all grown at 30° C. and the Desulfovibrio longus 51456 culture was grown at 35° C.
# After the 48-hour incubation, 600 microliters (μL) were taken from each culture and optical density (OD) was measured using a Thermofisher Spectronic 200 Spectrophotometer at 600 nm. Each culture was diluted to 0.05 OD600 in fresh MB1250 media and added to the 96 well plates. Edge wells were not used due to their inherent variability and evaporation of the media. Each of the components were added at their respective concentrations for a final volume of 500 μL per well. In Table 3, 6 and 7, the concentrations of the compound used for the experiments are listed. Each experiment was done with at least three replicates for different treatments and non-treatment controls. […] Plates were then sealed with a titer-top and placed into anaerobic boxes and incubated in an anaerobic incubator at 30° C.
# At each time point, sulfide samples were taken, and enumeration plates were made. Enumeration plates were made to determine the log growth in each dosed sample. For this process, enumeration plates were prepared by adding 180 μL fresh media MB1250 containing 0.01 wt % ferrous ammonium sulfate. 20 μL was taken from each well of the challenge plates and transferred to the enumeration plates using a 20-200 μL multichannel pipette. Enumeration plates were mixed three times using the multichannel pipette and serial diluted down the plate tenfold (20 μL into 180 μL). This serial dilution process was repeated for all challenge plate rows giving a total of 6 enumeration plates.
# After 7 days these enumeration plates were read. The ferrous ammonium sulfate in each plate would be converted to iron sulfide, changing wells with SRB growth from clear to black. By counting the number of black wells in a row, the log growth from the original well in the challenge plate can be determined.
# To determine hydrogen sulfide production in each sample, sulfide samples were also taken from each challenge plate. From each well, 9 μL were taken and added to 60 μL of 2% zinc acetate with 0.02% acetic acid. Then, 180 μL of milliQ water was added. 60 μL of stock solution 1 containing 64% sulfuric acid, <1% Dimethyl-4-phenylenediamine (DMPD), water to 100% was added to each well on the plates. This was followed by 3 μL of stock solution 3 containing 50% Iron (III) chloride. All chemicals are ordered from Fisher Scientific and used as received. These were mixed three times and read after 15 minutes. The plates were read at 670 nm using a Biotek microplate reader. Absorbance readings were converted to mM using a standard curve and this was converted to parts per million using the molar mass of sulfur. The standard curves were made using sodium sulfide nonahydrate solutions to give final solutions of 0, 0.125, 0.25 0.5, 1.0, and 1.5 ppm.
# [2] = test system: sulfate reducing bacteria; assay: Efficacy in inhibiting H2S production from sulfate reducing bacteria; format: cell-based
# Experimental: To understand the hydrogen sulfide inhibition efficacy of the N-hydroxycarboxamide compounds of the present invention, several compounds were tested. Some compounds that can be used in this H2S inhibiting composition are disclosed in Table 2. For the testing procedures, the compounds were dissolved in DMSO, resulting in a stock solution of about 8000-100000 ppm, which was subsequently diluted in 96-well plates or 10 mL serum vials containing media and selected culture to give varying concentrations from 0.09 to 1000 ppm of the compounds in final solution for efficacy testing.
# Strains of commonly found bacteria were used for testing the efficacy of the compounds, viz. Desulfovibrio alaskensis, Desulfovibrio longus and Desulfovibrio gabonensis. Media for the cultures was also prepared by using a standard method. The cultures were aseptically used and incubated under anaerobic conditions. Two well established methods were used for testing various compounds:
# The compounds C1, C12, C14, C15 and C16 were tested individually to understand each of their efficacies in inhibiting the H2S production from sulfate reducing bacteria, under standard temperature and pressure conditions. The efficacy of compounds C14 and C15 against hydrogen sulfide production are disclosed in Example 1, Tables 6 and 7.
smiles,measurement,setting,value
O=C(CCCN1C(=O)c2cccc3cccc(c23)C1=O)NO [C12],H2S,"[1]; Table 6 run, 2 days, 7.615 PPM",77.6 PPM
same,Log (Growth),"[1]; Table 6 run, 2 days, 7.615 PPM",7
same,H2S,"[1]; Table 6 run, 2 days, 15.75 PPM",115.3 PPM
same,Log (Growth),"[1]; Table 6 run, 2 days, 15.75 PPM",7.5
same,H2S,"[1]; Table 6 run, 2 days, 31.25 PPM",90.1 PPM
same,Log (Growth),"[1]; Table 6 run, 2 days, 31.25 PPM",7.0
same,H2S,"[1]; Table 6 run, 2 days, 125 PPM",91.4 PPM
same,Log (Growth),"[1]; Table 6 run, 2 days, 125 PPM",7.0
same,H2S,"[1]; Table 6 run, 2 days, 500 PPM",8.7 PPM
same,Log (Growth),"[1]; Table 6 run, 2 days, 500 PPM",0.0
same,H2S,"[1]; Table 6 run, 2 days, 1000 PPM",5.4 PPM
same,Log (Growth),"[1]; Table 6 run, 2 days, 1000 PPM",0.0
same,H2S,"[1]; Table 6 run, 5 days, 7.615 PPM",17.5 PPM
same,Log (Growth),"[1]; Table 6 run, 5 days, 7.615 PPM",8.0
same,H2S,"[1]; Table 6 run, 5 days, 15.75 PPM",26.7 PPM
same,Log (Growth),"[1]; Table 6 run, 5 days, 15.75 PPM",8.0
same,H2S,"[1]; Table 6 run, 5 days, 31.25 PPM",42.5 PPM
same,Log (Growth),"[1]; Table 6 run, 5 days, 31.25 PPM",7.0
same,H2S,"[1]; Table 6 run, 5 days, 125 PPM",21.3 PPM
same,Log (Growth),"[1]; Table 6 run, 5 days, 125 PPM",3.0
same,H2S,"[1]; Table 6 run, 5 days, 500 PPM",6.1 PPM
same,Log (Growth),"[1]; Table 6 run, 5 days, 500 PPM",0.0
same,H2S,"[1]; Table 6 run, 5 days, 1000 PPM",4.8 PPM
same,Log (Growth),"[1]; Table 6 run, 5 days, 1000 PPM",0.0
same,H2S,"[1]; Table 7 run, 2 days, 7.615 PPM",67.5 PPM
same,Log (Growth),"[1]; Table 7 run, 2 days, 7.615 PPM",8.0
same,H2S,"[1]; Table 7 run, 2 days, 15.75 PPM",43.7 PPM
same,Log (Growth),"[1]; Table 7 run, 2 days, 15.75 PPM",7.3
same,H2S,"[1]; Table 7 run, 2 days, 31.25 PPM",18.2 PPM
same,Log (Growth),"[1]; Table 7 run, 2 days, 31.25 PPM",7.5
same,H2S,"[1]; Table 7 run, 2 days, 125 PPM",12.2 PPM
same,Log (Growth),"[1]; Table 7 run, 2 days, 125 PPM",5.0
same,H2S,"[1]; Table 7 run, 2 days, 500 PPM",2.2 PPM
same,Log (Growth),"[1]; Table 7 run, 2 days, 500 PPM",3.0
same,H2S,"[1]; Table 7 run, 2 days, 1000 PPM",1.8 PPM
same,Log (Growth),"[1]; Table 7 run, 2 days, 1000 PPM",2.5
same,H2S,"[1]; Table 7 run, 5 days, 7.615 PPM",30.6 PPM
same,Log (Growth),"[1]; Table 7 run, 5 days, 7.615 PPM",7.3
same,H2S,"[1]; Table 7 run, 5 days, 15.75 PPM",34.4 PPM
same,Log (Growth),"[1]; Table 7 run, 5 days, 15.75 PPM",6.7
same,H2S,"[1]; Table 7 run, 5 days, 31.25 PPM",15.1 PPM
same,Log (Growth),"[1]; Table 7 run, 5 days, 31.25 PPM",5.5
same,H2S,"[1]; Table 7 run, 5 days, 125 PPM",6.2 PPM
same,Log (Growth),"[1]; Table 7 run, 5 days, 125 PPM",5.0
same,H2S,"[1]; Table 7 run, 5 days, 500 PPM",1.9 PPM
same,Log (Growth),"[1]; Table 7 run, 5 days, 500 PPM",0.0
same,H2S,"[1]; Table 7 run, 5 days, 1000 PPM",2.0 PPM
same,Log (Growth),"[1]; Table 7 run, 5 days, 1000 PPM",0.0
same,efficacy for inhibiting hydrogen sulfide production,[2]; anaerobic conditions,high efficacy
O=C(CCCCCCC(=O)NO)NO [C14],H2S,"[1]; Table 6 run, 2 days, 7.615 PPM",71.3 PPM
same,Log (Growth),"[1]; Table 6 run, 2 days, 7.615 PPM",7.0
same,H2S,"[1]; Table 6 run, 2 days, 15.75 PPM",56.4 PPM
same,Log (Growth),"[1]; Table 6 run, 2 days, 15.75 PPM",8.0
same,H2S,"[1]; Table 6 run, 2 days, 31.25 PPM",56.3 PPM
same,Log (Growth),"[1]; Table 6 run, 2 days, 31.25 PPM",7.3
same,H2S,"[1]; Table 6 run, 2 days, 125 PPM",131.9 PPM
same,Log (Growth),"[1]; Table 6 run, 2 days, 125 PPM",8.0
same,H2S,"[1]; Table 6 run, 2 days, 500 PPM",54.6 PPM
same,Log (Growth),"[1]; Table 6 run, 2 days, 500 PPM",7.7
same,H2S,"[1]; Table 6 run, 2 days, 1000 PPM",117.5 PPM
same,Log (Growth),"[1]; Table 6 run, 2 days, 1000 PPM",7.7
same,H2S,"[1]; Table 6 run, 5 days, 7.615 PPM",45.6 PPM
same,Log (Growth),"[1]; Table 6 run, 5 days, 7.615 PPM",7.3
same,H2S,"[1]; Table 6 run, 5 days, 15.75 PPM",34.7 PPM
same,Log (Growth),"[1]; Table 6 run, 5 days, 15.75 PPM",7.3
same,H2S,"[1]; Table 6 run, 5 days, 31.25 PPM",29.0 PPM
same,Log (Growth),"[1]; Table 6 run, 5 days, 31.25 PPM",7.3
same,H2S,"[1]; Table 6 run, 5 days, 125 PPM",45.0 PPM
same,Log (Growth),"[1]; Table 6 run, 5 days, 125 PPM",7.3
same,H2S,"[1]; Table 6 run, 5 days, 500 PPM",42.2 PPM
same,Log (Growth),"[1]; Table 6 run, 5 days, 500 PPM",7.0
same,H2S,"[1]; Table 6 run, 5 days, 1000 PPM",38.6 PPM
same,Log (Growth),"[1]; Table 6 run, 5 days, 1000 PPM",8.0
same,activity in reducing H2S production,[2]; Tables 6 and 7,did not show significant activity
